How the values were obtained:
[1] = tested on: MKN1 cells (KRAS amplification); experiment: Cell-based pERK HTRF assay in MKN1 cells (Biological Example 5)
Outline: (§1)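 Cells seeded at 2.5×10^4/well in 10% FBS medium overnight, then treated 2 h at 37 °C with a 9-point, 3-fold compound series (0.25% DMSO). Lysates read by HTRF for pERK1/2 (Thr202/Tyr204), 665/620 nm ratio; EC50 from four-parameter fit.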

HT1080 cells (NRAS) [2] = experiment: Cell-based pERK HTRF assay in HT1080 cells (Biological Example 5)
Procedure: Biological Example 5: Cell-based PERK HTRF assay in AsPC-1, SW1900, HPAC, Capan-2, RKN, H358, HCT116, KP-2, H1573, A549, MKN1, and HT1080 cells
The inhibition of ERK phosphorylation, as measured using the HTRF Advanced Phospho-ERK 1/2 (Thr202/Tyr204) Detection Assay kit (Perkin Elmer), was used to determine the effectiveness of test compounds in disrupting KRAS-driven protein/effector signaling in cells.
On day 1, cells were seeded into 96-well plates at 2.5×10^4 cells/well in 100 μL of complete growth media supplemented with 10% fetal bovine serum (FBS) and incubated at 37° C., in the presence of 5% CO2.
On day 2, cells were treated with compounds diluted in DMSO at 0.25% final DMSO concentration. Compounds were dosed in a 9-point concentration curve with three-fold dilution between concentrations. Cells were incubated in the presence of compound for two hours at 37° C. Following this treatment period, cells were harvested by aspirating the media, adding 40 μL of kit-supplied 1x lysis buffer per well, and shaking for 30 minutes at 250 rpm at room temperature.
Following cell lysis, samples were homogenized by pipetting up and down twenty times and 16 μL of cell lysate per well was transferred from the 96-well cell culture plate to two wells of a 384-well detection plate. A complete detection buffer was prepared by diluting D2 and Eu Cryptate antibodies 1:20 in kit-provided detection solution, 4 μL of complete detection buffer was then added to each well with lysate. Plates were incubated with gentle rocking for 24 hours at 4° C.
Following this incubation period, plates were centrifuged at 500×g for one minute and analyzed on a CLARIOstar plate reader. Data was imported into Microsoft Excel and the signal from the 665 nm channel was divided by the signal from the 620 nm channel. % pERK was calculated as: […]
Data was imported to the Prism software package (Graphpad) and EC50 values were calculated using the log (inhibitor) vs, response—variable slopc (Four parameters) model.

[3] = tested on: Capan-2 cells (KRAS G12V); experiment: Cell-based pERK HTRF assay in Capan-2 cells (Biological Example 5)
Outline: as §1

HPAC cells (KRAS G12D) [4] = experiment: Cell-based pERK HTRF assay in HPAC cells (Biological Example 5)
Outline: as §1

H358 cells (KRAS G12C) [5] = experiment: Cell-based pERK HTRF assay in H358 cells (Biological Example 5)
Outline: as §1

AsPC-1 cells (KRAS G12D) [6] = experiment: Cell-based pERK HTRF assay in AsPC-1 cells (Biological Example 5)
Outline: as §1

SW1900 cells (KRAS G12D) [7] = experiment: Cell-based pERK HTRF assay in SW1900 cells (Biological Example 5)
Outline: as §1

AsPC-1 cells (KRAS G12D) [8] = experiment: 3D Cell viability assay in AsPC-1 cells (Biological Example 6); format: cell-based; conditions: Homo sapiens, ASPC1; AsPC-1 (KRAS G12D) spheroids, 72 hours
Outline: (§2)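 Tumour spheroids, grown 48 h from 1000 seeded cells in ultra-low attachment wells, receive compound at nine three-fold-spaced concentrations (final DMSO 0.25%) for 72 h at 37 °C, 5% CO2. Viability is measured by luminescence after CTG 3D lysis.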

HT1080 cells (NRAS) [9] = experiment: 3D Cell viability assay in HT1080 cells (Biological Example 6); format: cell-based; conditions: Homo sapiens, HT-1080; HT1080 (NRAS) spheroids, 72 hours
Outline: as §2

H358 cells (KRAS G12C) [10] = experiment: 3D Cell viability assay in H358 cells (Biological Example 6); format: cell-based; conditions: Homo sapiens, NCI-H358; H358 (KRAS G12C) spheroids, 72 hours
Outline: as §2

[11] = tested on: MKN1 cells (KRAS amplification); experiment: 3D Cell viability assay in MKN1 cells (Biological Example 6); format: cell-based; conditions: Homo sapiens, MKN-1; MKN (MKN1, KRAS amplification) spheroids, 72 hours
Outline: as §2

HPAC cells (KRAS G12D) [12] = experiment: 3D Cell viability assay in HPAC cells (Biological Example 6); format: cell-based; conditions: Homo sapiens, HPAC, 72 h, HPAC (KRAS G12D) spheroids
Outline: as §2

[13] = tested on: Capan-2 cells (KRAS G12V); experiment: 3D Cell viability assay in Capan-2 cells (Biological Example 6); format: cell-based; conditions: Homo sapiens; Capan-2 (KRAS G12V) spheroids, 72 hours
Outline: as §2

SW1900 cells (KRAS G12D) [14] = experiment: 3D Cell viability assay in SW1900 cells (Biological Example 6); format: cell-based; conditions: Homo sapiens; SW1990 (text: SW1900, KRAS G12D) spheroids, 72 hours
Outline: as §2

RKN cells (KRAS G12V) = experiment: Cell-based pERK HTRF assay in RKN cells (Biological Example 5)
Outline: as §1

[15] = Homo sapiens, MKN-1, MKN cells (MKN1, KRAS amplification)
[16] = Homo sapiens, Capan-2, Capan-2 (KRAS G12V) cells
[17] = Homo sapiens, NCI-H358, H358 (KRAS G12C) cells
[18] = Homo sapiens, ASPC1, AsPC-1 (KRAS G12D) cells
[19] = Homo sapiens, SW1990, SW1990 cells (text: SW1900, KRAS G12D)

Structure (SMILES) | IC50 [1, 15] | IC50 (AsPC-1 cells (KRAS G12D) [8]) | IC50 (HT1080 cells (NRAS) [2]; Homo sapiens, HT-1080) | IC50 [3, 16] | IC50 (HT1080 cells (NRAS) [9]) | IC50 (HPAC cells (KRAS G12D) [4]; Homo sapiens, HPAC) | IC50 (H358 cells (KRAS G12C) [10]) | IC50 [11] | IC50 (HPAC cells (KRAS G12D) [12]) | IC50 [13] | IC50 (H358 cells (KRAS G12C) [5]; [17]) | IC50 (SW1900 cells (KRAS G12D) [14]) | IC50 (AsPC-1 cells (KRAS G12D) [6]; [18]) | IC50 (SW1900 cells (KRAS G12D) [7]; [19]) | also measured
CCN(c1nc(OC[C@@]23CCCN2C[C@H](F)C3)nc2c(F)c(-c3ccc(F)c4sc(N)c(C#N)c34)c(C(F)(F)F)cc12)[C@H]1CCN(C(=O)C(C)C)C1 (atropisomer, axis not shown) [Compound 468] | – | – | – | – | – | – | – | – | – | – | – | – | – | – | IC50 ([1]; MKN cells (MKN1, KRAS amplification)): > 1000 nM; IC50 (HT1080 cells (NRAS) [2]): > 1000 nM; IC50 ([3]; Capan-2 (KRAS G12V) cells): > 1000 nM; IC50 (HPAC cells (KRAS G12D) [4]): > 1000 nM; IC50 (H358 cells (KRAS G12C) [5]; H358 (KRAS G12C) cells): > 1000 nM; IC50 (AsPC-1 cells (KRAS G12D) [6]; AsPC-1 (KRAS G12D) cells): > 1000 nM; IC50 (SW1900 cells (KRAS G12D) [7]; SW1990 cells (text: SW1900, KRAS G12D)): > 1000 nM
CCN(c1nc(OC[C@@]23CCCN2C[C@H](F)C3)nc2c(F)c(-c3ccc(F)c4sc(N)c(C#N)c34)c(C(F)(F)F)cc12)[C@H]1CCS(=O)(=O)C1 (atropisomer, axis not shown) [Compound 492] | ≤ 100 nM | ≤ 100 nM | > 1000 nM | ≤ 100 nM | > 1000 nM | ≤ 100 nM | ≤ 100 nM | ≤ 100 nM | ≤ 100 nM | ≤ 100 nM | ≤ 100 nM | ≤ 100 nM | ≤ 100 nM | ≤ 100 nM | –
CCN(c1nc(OC[C@@]23CCCN2C[C@H](F)C3)nc2c(F)c(-c3ccc(F)c4sc(N)c(C#N)c34)c(C(F)(F)F)cc12)[C@H]1C[C@@H]2COC(=O)N2C1 (atropisomer, axis not shown) [Compound 519] | ≤ 100 nM | ≤ 100 nM | – | ≤ 100 nM | – | 100 to 1000 nM | ≤ 100 nM | ≤ 100 nM | 100 to 1000 nM | ≤ 100 nM | ≤ 100 nM | ≤ 100 nM | ≤ 100 nM | ≤ 100 nM | IC50 (RKN cells (KRAS G12V)): ≤ 100 nM
CCN(c1nc(OC[C@@]23CCCN2C[C@H](F)C3)nc2c(F)c(-c3ccc(F)c4sc(N)c(C#N)c34)c(C(F)(F)F)cc12)[C@H]1C[C@H]2COC(=O)N2C1 (atropisomer, axis not shown; (aS)) [Compound 518, 2-amino-4-((S)-4-(ethyl((6S,7aS)-3-oxotetrahydro-1H,3H-pyrrolo[1,2-c]oxazol-6-yl)amino)-8-fluoro-2-(((2R,7aS)-2-fluorotetrahydro-1H-pyrrolizin-7a(5H)-yl)methoxy)-6-(trifluoromethyl)quinazolin-7-yl)-7-fluorobenzo[b]thiophene-3-carbonitrile] | ≤ 100 nM | ≤ 100 nM | – | ≤ 100 nM | – | 100 to 1000 nM | ≤ 100 nM | ≤ 100 nM | ≤ 100 nM | ≤ 100 nM | ≤ 100 nM | ≤ 100 nM | ≤ 100 nM | ≤ 100 nM | IC50 (RKN cells (KRAS G12V)): ≤ 100 nM
CCOC(=O)N1CC[C@H](N(CC)c2nc(OC[C@@]34CCCN3C[C@H](F)C4)nc3c(F)c(-c4ccc(F)c5sc(N)c(C#N)c45)c(C(F)(F)F)cc23)C1 [Compound 467] | ≤ 100 nM | ≤ 100 nM | > 1000 nM | ≤ 100 nM | > 1000 nM | 100 to 1000 nM | ≤ 100 nM | ≤ 100 nM | > 1000 nM | ≤ 100 nM | ≤ 100 nM | ≤ 100 nM | 100 to 1000 nM | ≤ 100 nM | –
CCN(c1nc(OC[C@@]23CCCN2C[C@H](F)C3)nc2c(F)c(-c3ccc(F)c4sc(N)c(C#N)c34)c(C(F)(F)F)cc12)[C@H]1C[C@H](C)N(C(=O)C2CC2)C1 [Compound 470] | ≤ 100 nM | ≤ 100 nM | > 1000 nM | ≤ 100 nM | > 1000 nM | 100 to 1000 nM | ≤ 100 nM | ≤ 100 nM | > 1000 nM | ≤ 100 nM | ≤ 100 nM | ≤ 100 nM | ≤ 100 nM | ≤ 100 nM | –
Cc1cc2n(n1)CCN(c1nc(OCC34CCCN3CC(F)C4)nc3c(F)c(-c4ccc(F)c5sc(N)c(C#N)c45)c(C(F)(F)F)cc13)C2 (stereo not shown) [Compound 484] | ≤ 100 nM | ≤ 100 nM | > 1000 nM | ≤ 100 nM | > 1000 nM | 100 to 1000 nM | ≤ 100 nM | 100 to 1000 nM | 100 to 1000 nM | ≤ 100 nM | ≤ 100 nM | ≤ 100 nM | ≤ 100 nM | ≤ 100 nM | –
N#Cc1c(N)sc2c(F)ccc(-c3c(C(F)(F)F)cc4c(N5CCn6nc(N7CCOCC7)cc6C5)nc(OC[C@@]56CCCN5C[C@H](F)C6)nc4c3F)c12 [Compound 485] | ≤ 100 nM | ≤ 100 nM | > 1000 nM | ≤ 100 nM | > 1000 nM | 100 to 1000 nM | ≤ 100 nM | 100 to 1000 nM | 100 to 1000 nM | ≤ 100 nM | ≤ 100 nM | ≤ 100 nM | 100 to 1000 nM | ≤ 100 nM | –

From patent US20260042764A1, “COMPOSITIONS AND METHODS FOR INHIBITION OF KRAS” (TheRas, Inc., priority 2022, published 2026)
